Values quoted from earlier work in US11702444B2, “Method for preparing natural bioactive peptide Tubulysin U” (Shenzhen Institute of Geriatrics, priority 2020, dated 2023).

How the values were obtained:
1A9 ovarian cancer cells = conditions: antiproliferative activity in vitro
[1] = test system: MCF-7 breast cancer cells; conditions: antiproliferative activity in vitro

**Q.** With CC[C@H](C)[C@H](NC(=O)[C@H]1CCCCN1C)C(=O)N[C@H](C[C@@H](OC(C)=O)c1nc(C(=O)N[C@@H](Cc2ccccc2)C[C@H](C)C(=O)O)cs1)C(C)C [Tubulysin U] as the compound, how does the IC50 (1A9 ovarian cancer cells) read?
**A.** 650 pM

**Q.** What about the IC50 [1] of the same compound?
**A.** 400 pM
